The text below walks through data of patent publication US20160053277A1, “Compositions Having Dicamba Decarboxylase Activity and Methods of Use” (PIONEER HI-BRED INTERNATIONAL, INC., priority 2013, published 2016).

The structures appear in SMILES notation. Entries after “also recorded” stand apart in the source; their conditions may differ.

The test system of data set [1] is Arabidopsis ecotype Columbia (Col-0). The data set is described as follows: Arabidopsis root growth inhibition assay. To be noted: 6 days. The protocol: Phytotoxicity of other major dicamba decarboxylated products was evaluated using Arabidopsis root growth inhibition assay. 4-chloro-3-methoxy phenol was purchased from Biogene Organics, Inc. (catalog number U06-642-79). 2,5-dichloro phenol was purchased from Sigma-Aldrich (catalog number D70007). Briefly, seeds of Arabidopsis ecotype Columbia (Col-0) were surface sterilized with 70% (v/v) ethanol for 5 minutes and 10% (v/v) bleach for 15 minutes. After being washed three times with distilled water, the seeds were germinated on 1× Murashige and Skoog (MS) medium with a pH of 5.7, 3% (w/v) sucrose, and 0.8% (w/v) agar. After incubation for 3.5 days, the seedlings were transferred to 1× MS medium containing B5 vitamin, 3% (w/v) sucrose, 1.2% (w/v) agar, and filter sterilized compounds was added to the media at 60° C. The concentrations of compounds including dicamba were 0 μM, 1.0 μM, and 10 μM. The seedlings were placed vertically, and the temperature maintained at 23° C. to allow root growth along the surface of the agar, with a photoperiod of 16 h of light and 8 h of dark.
After 6 days on media, root growth was evaluated. In wild type Arabidopsis, root growth inhibition is expected from auxin herbicide treatment.

The next data set relates to Soybean seeds. Kind of data set: Soybean germination test on media with dicamba or decarboxylation product. The format is in vivo. To be noted: FIG. 2, concentration not stated.

Take `Oc1cc(Cl)ccc1Cl` [2,5-dichloro phenol]: the Arabidopsis root growth entry in data set [1] (1 uM in medium) and in data set [1] (10 uM in medium) was “not affected; also recorded: did not have any effect” each time. In the case of `COc1cc(Cl)ccc1Cl` [2,5-DCA, 2,5-dichloro anisole], the soybean germination result in the data set with Soybean seeds is recorded as “not affected”.
